For one data set, the target named is T1, Peroxiredoxin (Prx) (Homo sapiens, UniProt Q06830).
T1 construct: purchased SigmaAldrich
Description: Peroxiredoxin activity (summary Table 27). Type of data set: biochemical. The note with it: disrupts active site structure.

The target of a further data set is γ-Glutamyltranspeptidase (Homo sapiens, UniProt P19440). Description: γ-glutamyltranspeptidase enzyme activity (summary Table 27). Format: biochemical.
Another data set addresses T2, Recombinant human ERCC1 (Homo sapiens, UniProt P07992).
T2 construct: 6xHis (N); purchased Creative BioMart; host or cells: E. coli
Description: Tavocept-derived mesna adducts on ERCC1 (trypsin digest, LC-MS). Format: binding. The note with it: 20 mM Tavocept, LC-MS of tryptic fragments. The method, then:
Recombinant human ERCC1 (1 mg; 27.8 nanomoles, Creative BioMart) was reduced using a vast excess of dithiothreitol (DTT, 100 μL of a 500 mM stock) in ammonium bicarbonate (40 mM, pH 8.0) at 37° C. for 75 minutes (total reaction volume was 900 μL). […] Each 800 μL reaction was then chromatographed over a NAP10 column. This step removed unreacted Tavocept and was used for the buffer control simply to ensure that both samples received the same handling/manipulation during the course of the experiment. The elution volume from each NAP10 column was 1.2 mL. […] Trypsin digestion reactions were incubated for 1 hour at 30° C. and then for 17 hours at room temperature (23° C.). Following the Trypsin digest, the samples were lyophilized to dryness overnight and then resuspended in a volume of approximately 100 μL water and analyzed using LC-MS. A Symmetry C18 HPLC column (Waters, Franklin, Mass.; 3.5 μm; 4.6 mm×75 mm) and a Waters Alliance liquid chromatography system (Waters 2695, Franklin, Mass., USA) coupled to a Micromass single quadropole mass detector (Micromass ZMD, Manchester, UK) were used to analyze fragments from trypsin-digested human ERCC1. The mobile phase contained 0.1% of formic acid throughout the run and the flow rate was 0.35 mL/min. […]

For data set [1], the target named is T3, Anaplastic Lymphoma Kinase (ALK) (Homo sapiens, UniProt Q9UM73).
T3 construct: illustrates the kinase domain of ALK (residues 1058-1623) which was used in these experiments; purchased Millipore; host or cells: Sf21 insect cells (baculovirus)
T3 sequence (Q9UM73 1058-1620 limits assumed): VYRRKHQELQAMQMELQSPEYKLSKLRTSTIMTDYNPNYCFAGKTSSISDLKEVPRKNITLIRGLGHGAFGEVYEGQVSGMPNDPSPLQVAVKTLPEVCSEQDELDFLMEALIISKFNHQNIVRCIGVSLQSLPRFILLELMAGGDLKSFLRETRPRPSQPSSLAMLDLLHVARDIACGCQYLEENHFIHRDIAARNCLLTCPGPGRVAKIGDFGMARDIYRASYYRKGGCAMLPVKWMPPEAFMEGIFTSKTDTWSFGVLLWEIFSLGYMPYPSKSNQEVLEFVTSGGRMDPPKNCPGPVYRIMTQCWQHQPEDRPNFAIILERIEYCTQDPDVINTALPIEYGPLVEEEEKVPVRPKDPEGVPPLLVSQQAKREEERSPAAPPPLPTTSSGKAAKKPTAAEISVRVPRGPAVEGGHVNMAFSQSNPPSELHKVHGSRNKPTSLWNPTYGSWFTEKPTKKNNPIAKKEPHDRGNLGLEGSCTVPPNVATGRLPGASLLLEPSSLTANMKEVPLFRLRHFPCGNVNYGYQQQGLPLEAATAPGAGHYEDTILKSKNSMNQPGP
Description: ALK kinase activity (summary Table 27). Type of data set: biochemical.

The conditions of data set [2]: cited from earlier work.
A further data set deals with T4, FTase (Homo sapiens, UniProt P49354+P49356).
T4 construct: purchased Abcam
T4 sequence (P49356 whole entry, one chain of several): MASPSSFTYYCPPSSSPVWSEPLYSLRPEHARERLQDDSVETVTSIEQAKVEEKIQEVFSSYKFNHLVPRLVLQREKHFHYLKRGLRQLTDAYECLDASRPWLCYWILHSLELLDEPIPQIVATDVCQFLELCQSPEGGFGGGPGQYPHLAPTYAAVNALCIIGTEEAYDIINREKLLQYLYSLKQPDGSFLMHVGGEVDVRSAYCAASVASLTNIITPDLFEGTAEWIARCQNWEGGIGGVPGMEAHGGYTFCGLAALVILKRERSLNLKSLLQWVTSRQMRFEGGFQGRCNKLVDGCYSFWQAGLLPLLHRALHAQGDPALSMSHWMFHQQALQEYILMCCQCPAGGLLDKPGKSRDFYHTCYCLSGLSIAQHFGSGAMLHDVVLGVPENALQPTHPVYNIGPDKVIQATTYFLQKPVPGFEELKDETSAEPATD
Description: FTase-mediated farnesylation of Dansyl-GCVLS peptide. Type of data set: biochemical.

Another data set has as its target T5, Recombinant human Trx (Homo sapiens, UniProt P10599).
T5 sequence (P10599 1-105): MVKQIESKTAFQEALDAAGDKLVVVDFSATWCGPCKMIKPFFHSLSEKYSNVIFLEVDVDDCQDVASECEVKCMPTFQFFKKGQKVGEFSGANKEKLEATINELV
Description: Native PAGE of Trx incubated with Tavocept. Format: binding. Further details: purchased Sigma (SigmaAldrich); host or cells: E. coli. The following applies: Tavocept 10 mM, 37° C., 0-48 hours. The method, then: Recombinant human Trx (1.5 mg, SigmaAldrich) was reduced using a vast excess of DTT (50 mM) in Tris buffer (100 mM, pH 8.0) at 37° C. for 50 minutes. […] (final reactions volumes were approximately 160 μL). At time selected times (0-48 hours), aliquots were removed and subjected to TrisGlycine Native or TrisGlycine SDS PAGE analysis. Gels were fixed in acetic acid/methanol and stained with Coomassie R-250.
Recombinant human Trx (1.5 mg) was reduced using a vast excess of DTT (50 mM) in Tris buffer (100 mM, pH 8.0) at 37° C. for 50 minutes. […] (final incubation reaction volumes were approximately 160 μL). At time selected times (0-48 hours), aliquots were removed and subjected to TrisGlycine Native or TrisGlycine SDS PAGE analysis. Gels were fixed in acetic acid/methanol and stained with Coomassie R-250.

The target in another data set is ROS1 kinase (Homo sapiens, UniProt P08922). Description: ROS1 kinase assays. Type of data set: biochemical. Further details: Recombinant human ROS1 kinase (residues 1883-2347), containing an N-terminal GST tag; purchased SignalChem; host or cells: Sf9 insect cells (baculovirus).
ROS1 kinase, sequence (P08922 1883-2347): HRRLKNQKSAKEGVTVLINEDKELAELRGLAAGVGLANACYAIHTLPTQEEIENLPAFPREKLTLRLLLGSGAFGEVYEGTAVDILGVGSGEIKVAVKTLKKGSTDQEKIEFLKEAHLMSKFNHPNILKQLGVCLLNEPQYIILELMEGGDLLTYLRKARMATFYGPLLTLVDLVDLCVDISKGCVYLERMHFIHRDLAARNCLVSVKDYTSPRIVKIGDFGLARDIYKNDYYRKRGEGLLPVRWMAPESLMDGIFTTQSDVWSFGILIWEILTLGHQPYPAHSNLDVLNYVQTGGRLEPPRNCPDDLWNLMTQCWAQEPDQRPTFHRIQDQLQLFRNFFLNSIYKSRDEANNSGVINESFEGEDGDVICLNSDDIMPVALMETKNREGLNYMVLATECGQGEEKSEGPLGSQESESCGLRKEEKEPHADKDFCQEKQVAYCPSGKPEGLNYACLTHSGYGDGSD
The next data set concerns the target T6, Human Grx (Homo sapiens, UniProt P35754).
T6 construct: 6xHis (TEV-cleavable) (N, cleaved yes); made in house; host or cells: E. coli BL21 (RIPL)
Description: MS and crystal structure of Grx with Tavocept-derived mesna adducts. Type of data set: binding.

Another data set concerns the target RNR subunit 1 (Homo sapiens, UniProt P23921). Description: Whole protein MS of RNR subunit 1. Type of data set: binding. The note with it: whole protein Mass Spectroscopy. The source says:
RNR1 contains a total of sixteen (16) cysteine residues and at least five (5) of these cysteine residues are required for catalysis, including: Cys218, Cys429, Cys444, Cys787, and Cys790. It is hypothesized that the Tavocept-derived mesna adducts identified on the RNR1 protein using whole protein Mass Spectroscopy (see, FIG. 49) may alter or modulate RNR activity.

The target in data set [3] is human peroxiredoxin 4 (PRX4) (Homo sapiens, UniProt Q13162). Description: Tavocept-derived mesna adducts on Prx 4 (MS, X-ray crystallography).
human peroxiredoxin 4 (PRX4), sequence (Q13162 79-271 limits assumed): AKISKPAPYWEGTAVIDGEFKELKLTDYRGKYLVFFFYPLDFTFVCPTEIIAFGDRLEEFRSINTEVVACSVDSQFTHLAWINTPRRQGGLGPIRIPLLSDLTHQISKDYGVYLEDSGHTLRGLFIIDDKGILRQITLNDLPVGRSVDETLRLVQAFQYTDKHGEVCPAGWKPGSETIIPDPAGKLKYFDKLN

Where “and” joins values, the source holds several entries; their conditions need not be identical. Equal entries are not always repeated. Entries after “also recorded” stand apart in the source; their conditions may differ. Where two headings read alike, the source gives them in different places.

The Cmax is the maximum level reached in the sampled fluid or tissue.

T6 sequence (P35754 whole entry): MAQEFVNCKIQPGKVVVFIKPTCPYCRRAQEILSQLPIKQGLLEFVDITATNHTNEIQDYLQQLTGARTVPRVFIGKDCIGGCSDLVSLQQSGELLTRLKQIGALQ
T2 sequence (P07992 whole entry): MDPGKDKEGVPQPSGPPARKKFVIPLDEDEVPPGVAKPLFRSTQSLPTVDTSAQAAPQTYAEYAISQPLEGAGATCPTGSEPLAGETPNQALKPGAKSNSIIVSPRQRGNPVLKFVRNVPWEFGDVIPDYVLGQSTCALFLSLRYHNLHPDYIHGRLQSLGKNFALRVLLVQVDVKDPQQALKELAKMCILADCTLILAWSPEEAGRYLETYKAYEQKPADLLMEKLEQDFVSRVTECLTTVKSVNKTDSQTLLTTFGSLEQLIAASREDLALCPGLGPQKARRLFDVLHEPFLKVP
T1 sequence (Q06830 whole entry): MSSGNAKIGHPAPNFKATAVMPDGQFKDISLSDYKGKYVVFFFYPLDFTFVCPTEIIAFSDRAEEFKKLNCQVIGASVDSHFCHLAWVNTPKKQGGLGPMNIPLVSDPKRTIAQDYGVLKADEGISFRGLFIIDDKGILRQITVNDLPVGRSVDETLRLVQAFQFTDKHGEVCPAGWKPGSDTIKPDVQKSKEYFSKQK
γ-Glutamyltranspeptidase, sequence (P19440 whole entry): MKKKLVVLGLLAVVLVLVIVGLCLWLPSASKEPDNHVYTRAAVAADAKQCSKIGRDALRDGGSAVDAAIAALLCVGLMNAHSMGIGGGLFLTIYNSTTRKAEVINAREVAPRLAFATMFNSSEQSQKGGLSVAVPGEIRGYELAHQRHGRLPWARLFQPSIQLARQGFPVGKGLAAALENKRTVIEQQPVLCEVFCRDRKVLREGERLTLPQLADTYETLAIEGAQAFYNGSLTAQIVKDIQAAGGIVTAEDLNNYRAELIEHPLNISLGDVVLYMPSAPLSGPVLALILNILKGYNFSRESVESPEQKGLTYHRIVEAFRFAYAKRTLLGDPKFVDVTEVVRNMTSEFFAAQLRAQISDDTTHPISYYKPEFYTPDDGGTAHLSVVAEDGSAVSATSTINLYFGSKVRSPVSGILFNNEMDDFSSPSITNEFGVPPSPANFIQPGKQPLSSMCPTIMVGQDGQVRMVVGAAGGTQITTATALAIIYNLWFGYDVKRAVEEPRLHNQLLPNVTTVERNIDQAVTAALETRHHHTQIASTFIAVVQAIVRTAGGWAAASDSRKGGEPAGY
RNR subunit 1, sequence (P23921 whole entry): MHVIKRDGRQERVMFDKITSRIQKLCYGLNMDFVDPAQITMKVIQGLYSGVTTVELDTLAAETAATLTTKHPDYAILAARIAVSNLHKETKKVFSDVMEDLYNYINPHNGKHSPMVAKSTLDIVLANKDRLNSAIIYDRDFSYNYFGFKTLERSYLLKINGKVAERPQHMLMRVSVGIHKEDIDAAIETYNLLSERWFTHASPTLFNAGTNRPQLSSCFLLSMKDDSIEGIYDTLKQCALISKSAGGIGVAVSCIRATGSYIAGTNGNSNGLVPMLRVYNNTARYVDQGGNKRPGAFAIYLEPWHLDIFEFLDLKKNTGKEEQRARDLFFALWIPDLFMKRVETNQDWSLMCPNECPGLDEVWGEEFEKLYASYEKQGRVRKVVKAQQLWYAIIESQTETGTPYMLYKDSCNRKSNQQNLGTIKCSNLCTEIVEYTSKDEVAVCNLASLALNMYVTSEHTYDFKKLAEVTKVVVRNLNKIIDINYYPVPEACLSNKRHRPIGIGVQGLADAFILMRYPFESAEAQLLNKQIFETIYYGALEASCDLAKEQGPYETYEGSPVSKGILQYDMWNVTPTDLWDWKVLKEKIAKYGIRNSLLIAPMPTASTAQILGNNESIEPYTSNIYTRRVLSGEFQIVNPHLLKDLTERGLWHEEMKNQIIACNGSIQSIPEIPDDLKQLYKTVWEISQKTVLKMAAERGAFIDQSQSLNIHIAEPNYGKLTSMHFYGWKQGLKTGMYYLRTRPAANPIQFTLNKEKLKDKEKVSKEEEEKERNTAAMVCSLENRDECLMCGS

On to `O=S(=O)([O-])CCSSCCS(=O)(=O)[O-].[Na+].[Na+]` [Tavocept, disodium 2,2′-dithio-bis-ethane sulfonate], for which the “Effect on Prx” value on Peroxiredoxin (Prx) is on record as “resulting in impaired enzyme activity”. Further, the “Effect on γ-glutamyltranspeptidase enzyme activity” value on γ-Glutamyltranspeptidase is on record as “heteroconjugates can inhibit γ-glutamyl-”. Moreover, the “ERCC1 cysteine xenobiotically modified” value at Recombinant human ERCC1 is listed as “Cys238; also recorded: Cys274”. In addition, the “Effect on ALK kinase activity” value in data set [1] is “resulting in inhibition of ALK kinase”. Further, the Tavocept in plasma in data set [2] (41 g/m^2 Tavocept) is reported as around 14 mM. Besides, the “concentrations achieved in the clinic” value in data set [2] (as high as) was at most 18000 µM. Moreover, in data set [2] (doses of 18.4 g/m^2 and higher), the “plasma levels pharmacologically achievable” value was at least 8 mM. Also, the pharmacologically achievable concentrations in [2] (in vivo) is on record as 6-10 mM. Moreover, in data set [2] (in vivo), the “plasma concentrations achieved in clinical trials” value was 10000 µM. Also, the Cmax in [2] (read-out: Cmax values in plasma, typical, doses as high as 41 g/m^2) is 10000 µM; in data set [2] (read-out: Cmax values in plasma, dose of 18.4 g/m^2), ≥ 10000 µM and 10000 µM; in [2] (read-out: typical Cmax values, administered at 18 g/m^2), 10000 µM. Further, the “effect on FTase activity” value at FTase is “Inhibition”. For the same compound, the “Tris-glycine native gel electrophoresis profile of Trx” value on Recombinant human Trx is given as “altered Tris-glycine native gel electrophoresis profile”. Also, on ROS1 kinase, the “Inhibition of ROS1 kinase” value was “directly inhibit ROS1 kinase in a time-dependent manner”. Also, the “Effect on Crizotinib inhibition of ROS1 kinase” value at ROS1 kinase (Tavocept incubated with ROS1 kinase prior to initiation of the kinase assays) is reported as “potentiation of Crizotinib inhibition”. In addition, at ROS1 kinase (time dependent), the “Modification of ROS1 kinase” value was “BNP7787 xenobiotically modifies ROS1 kinase in”. Also, at Human Grx (Mass Spectrum), the “number of Tavocept-derived mesna adducts on Human Grx” value is given as “two”. At Human Grx (atomic resolution map), the “Grx cysteines with Tavocept-derived mesna adduct” value was “Cys7 (Panel A) and Cys82”. Also, on RNR subunit 1, the “number of Tavocept-derived mesna adducts on RNR1 cysteine residues” value was at most 8. Also, the “number of Tavocept-derived mesna moieties on Prx 4” value in data set [3] (Mass Spectroscopy after reaction with Tavocept) came to 2. In addition, the “Prx 4 cysteine bound by Tavocept-derived mesna moiety” value in data set [3] (X-ray, 2.3 Å, 40 mM Tavocept) is “Cys124”.

The values are drawn from patent US20160106439A1, “PNEUMATIC TOURNIQUET” (BIONUMERIK PHARMACEUTICALS, INC., priority 2013, published 2016).
